# In ChEMBL document CHEMBL1201862, “PubChem BioAssay data set” (2004):
#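 Test compounds were applied to cells in 96-well plates for 48 hours at 5 doses. GI50 = concentration required for 50% inhibition of growth.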 Active and inactive are the calls of the source. No stated cut-off is given here; in the data, active = GI50 up to about 1.1 µM and inactive = higher.
# What was measured:
# Assay in all cases: NCI tumour cell line growth inhibition, 48 h
# SF-295 = test system: SF-295
# HOP-92 = test system: HOP-92
# HCC 2998 = test system: HCC 2998
# M14 = test system: M14
# T47D = test system: T47D
# 786-0 = test system: 786-0
# NCI-H23 = test system: NCI-H23
# OVCAR-4 = test system: OVCAR-4
# ACHN = test system: ACHN
# MOLT-4 = test system: MOLT-4
# SK-MEL-2 = test system: SK-MEL-2
# LOX IMVI = test system: LOX IMVI
# KM12 = test system: KM12
# UO-31 = test system: UO-31
# UACC-257 = test system: UACC-257
# HCT-116 = test system: HCT-116
# SK-OV-3 = test system: SK-OV-3
# NCI-H226 = test system: NCI-H226
# Malme-3M = test system: Malme-3M
# OVCAR-5 = test system: OVCAR-5
Compound,GI50 (SF-295),GI50 (HOP-92),GI50 (HCC 2998),GI50 (M14),GI50 (T47D),GI50 (786-0),GI50 (NCI-H23),GI50 (OVCAR-4),GI50 (ACHN),GI50 (MOLT-4),GI50 (SK-MEL-2),GI50 (LOX IMVI),GI50 (KM12),GI50 (UO-31),GI50 (UACC-257),GI50 (HCT-116),GI50 (SK-OV-3),GI50 (NCI-H226),GI50 (Malme-3M),GI50 (OVCAR-5)
Cc1cccc2c(=O)c3cccc([C@@H](C)C(=O)O)c3oc12,> 100 µM (inactive),> 100 µM (inactive),> 100 µM (inactive),> 100 µM (inactive),> 100 µM (inactive),> 100 µM (inactive),> 100 µM (inactive),> 100 µM (inactive),> 100 µM (inactive),> 100 µM (inactive),80.7 µM (inactive),> 100 µM (inactive),> 100 µM (inactive),> 100 µM (inactive),> 100 µM (inactive),> 100 µM (inactive),> 100 µM (inactive),> 100 µM (inactive),–,–
COc1ccc2c(c1)CC[C@@H]1C2CC[C@]2(C)C(=O)N(CCN(C)C)C(=O)CC12 (stereo partly drawn),> 100 µM (inactive),> 100 µM (inactive),> 100 µM (inactive),> 100 µM (inactive),> 100 µM (inactive),> 100 µM (inactive),> 100 µM (inactive),> 100 µM (inactive),> 100 µM (inactive),> 100 µM (inactive),–,–,> 100 µM (inactive),> 100 µM (inactive),> 100 µM (inactive),> 100 µM (inactive),> 100 µM (inactive),> 100 µM (inactive),> 100 µM (inactive),> 100 µM (inactive)
CC(=O)N1CCOC12N=NC(C)(C)O2 (stereo not drawn),> 100 µM (inactive),> 100 µM (inactive),> 100 µM (inactive),> 100 µM (inactive),> 100 µM (inactive),> 100 µM (inactive),> 100 µM (inactive),> 100 µM (inactive),> 100 µM (inactive),> 100 µM (inactive),> 100 µM (inactive),> 100 µM (inactive),> 100 µM (inactive),> 100 µM (inactive),> 100 µM (inactive),> 100 µM (inactive),> 100 µM (inactive),–,> 100 µM (inactive),> 100 µM (inactive)
C=CCNC(=O)NC1=CSC2=NC(=O)C3(NN12)c1ccccc1-c1ccccc13,> 10 µM (inactive),> 10 µM (inactive),> 10 µM (inactive),> 10 µM (inactive),> 10 µM (inactive),> 10 µM (inactive),> 10 µM (inactive),> 10 µM (inactive),> 10 µM (inactive),> 10 µM (inactive),–,> 10 µM (inactive),> 10 µM (inactive),8.24 µM (inactive),> 10 µM (inactive),> 10 µM (inactive),> 10 µM (inactive),> 10 µM (inactive),> 10 µM (inactive),> 10 µM (inactive)
COC(C/C(=C/CO[Si](C(C)C)(C(C)C)C(C)C)C(=O)N(COCC[Si](C)(C)C)c1ccccc1I)OC,4.58 µM (inactive),42 µM (inactive),43.9 µM (inactive),26.6 µM (inactive),32.6 µM (inactive),31.4 µM (inactive),17.3 µM (inactive),42.2 µM (inactive),20.6 µM (inactive),16.2 µM (inactive),14.9 µM (inactive),14.7 µM (inactive),31.8 µM (inactive),55.3 µM (inactive),20 µM (inactive),13.2 µM (inactive),> 100 µM (inactive),36 µM (inactive),–,32.4 µM (inactive)
CC1(C)O[C@@H]2[C@@H](COC(=O)c3ccccc3)C[C@@H](C#N)[C@@H]2O1,> 100 µM (inactive),> 100 µM (inactive),> 100 µM (inactive),> 100 µM (inactive),> 100 µM (inactive),> 100 µM (inactive),> 100 µM (inactive),> 100 µM (inactive),> 100 µM (inactive),> 100 µM (inactive),–,> 100 µM (inactive),> 100 µM (inactive),> 100 µM (inactive),–,> 100 µM (inactive),> 100 µM (inactive),> 100 µM (inactive),> 100 µM (inactive),> 100 µM (inactive)
N#CC(c1cc2c(cc1Br)OCO2)N1CCOCC1 (stereo not drawn),53 µM (inactive),> 100 µM (inactive),> 100 µM (inactive),20.6 µM (inactive),> 100 µM (inactive),36.4 µM (inactive),98.2 µM (inactive),> 100 µM (inactive),62.8 µM (inactive),27.7 µM (inactive),–,24.5 µM (inactive),67.6 µM (inactive),71.4 µM (inactive),> 100 µM (inactive),6.5 µM (inactive),73.3 µM (inactive),61.5 µM (inactive),78.9 µM (inactive),> 100 µM (inactive)
CCOc1ccc(/C=C2/C(=O)N/C(=N\C(C)=O)N2C)cc1,> 100 µM (inactive),> 100 µM (inactive),> 100 µM (inactive),> 100 µM (inactive),> 100 µM (inactive),> 100 µM (inactive),> 100 µM (inactive),> 100 µM (inactive),> 100 µM (inactive),39.6 µM (inactive),> 100 µM (inactive),> 100 µM (inactive),> 100 µM (inactive),> 100 µM (inactive),> 100 µM (inactive),> 100 µM (inactive),> 100 µM (inactive),> 100 µM (inactive),–,> 100 µM (inactive)
O=C(CCc1cc(O)ccc1O)OCCc1ccccc1,37.5 µM (inactive),2.96 µM (inactive),47.2 µM (inactive),23.4 µM (inactive),16.4 µM (inactive),9.53 µM (inactive),32.7 µM (inactive),1.49 µM (inactive),4.33 µM (inactive),1.36 µM (inactive),18.7 µM (inactive),–,8.53 µM (inactive),4.6 µM (inactive),12.4 µM (inactive),13 µM (inactive),> 100 µM (inactive),> 28.3 µM (inactive),12.6 µM (inactive),27.4 µM (inactive)
COc1cc2c(c(OC)c1OC)-c1ccc(=O)c(O)cc1[C@@H](NC(C)=O)CC2 [COLCHICEINE],22.2 µM (inactive),20.2 µM (inactive),15.3 µM (inactive),24.7 µM (inactive),5.51 µM (inactive),23.3 µM (inactive),10.6 µM (inactive),12.6 µM (inactive),18.1 µM (inactive),5.42 µM (inactive),25.5 µM (inactive),12.6 µM (inactive),15 µM (inactive),17.6 µM (inactive),21.2 µM (inactive),27.7 µM (inactive),40.5 µM (inactive),19.7 µM (inactive),–,33.5 µM (inactive)
O=C(/C=C/c1cc2ccccc2o1)N1CCN(c2ccccn2)CC1,> 100 µM (inactive),60.5 µM (inactive),> 100 µM (inactive),71.6 µM (inactive),44.3 µM (inactive),> 100 µM (inactive),> 100 µM (inactive),49.8 µM (inactive),–,19 µM (inactive),> 100 µM (inactive),> 100 µM (inactive),87.5 µM (inactive),40.9 µM (inactive),> 100 µM (inactive),85.3 µM (inactive),> 100 µM (inactive),–,79.6 µM (inactive),> 100 µM (inactive)
CCNC(=S)NNC(=O)C12CC3CC(CC(C3)C1)C2,> 100 µM (inactive),–,> 100 µM (inactive),> 100 µM (inactive),> 100 µM (inactive),> 100 µM (inactive),> 100 µM (inactive),> 100 µM (inactive),> 100 µM (inactive),> 100 µM (inactive),> 100 µM (inactive),> 100 µM (inactive),> 100 µM (inactive),> 100 µM (inactive),> 100 µM (inactive),> 100 µM (inactive),> 100 µM (inactive),> 100 µM (inactive),> 100 µM (inactive),> 100 µM (inactive)
C(=N/Nc1ccc(-c2nc3ccccc3[nH]2)cc1)/c1c(-c2ccccc2)[nH]c2ccccc12,0.294 µM (active),> 100 µM (inactive),0.168 µM (active),0.215 µM (active),28.8 µM (inactive),0.465 µM (active),0.973 µM (active),2.78 µM (inactive),0.575 µM (active),0.658 µM (active),0.199 µM (active),0.759 µM (active),0.4 µM (active),0.405 µM (active),0.678 µM (active),0.424 µM (active),0.32 µM (active),0.408 µM (active),–,–
CC(=O)O[C@H]1C(=O)[C@@]2(C)[C@H]([C@H](OC(=O)c3ccccc3)[C@]3(O)C[C@H](OC(=O)[C@H](O)[C@@H](NC(=O)C(C)(O)C(C)O)c4ccccc4)C(C)=C1C3(C)C)[C@]1(OC(C)=O)CO[C@@H]1C[C@@H]2O (stereo partly drawn),3.72 µM (inactive),0.44 µM (active),0.141 µM (active),0.337 µM (active),0.929 µM (active),1.33 µM (inactive),0.282 µM (active),13.2 µM (inactive),14.4 µM (inactive),0.282 µM (active),0.124 µM (active),0.607 µM (active),0.167 µM (active),27.6 µM (inactive),0.381 µM (active),0.14 µM (active),0.231 µM (active),–,0.226 µM (active),0.687 µM (active)
CCN(CC)CCNc1ccc2ncn3c4c(OC)ccc(OC)c4c(=O)c1c23,13.3 µM (inactive),11.2 µM (inactive),15.3 µM (inactive),18.7 µM (inactive),> 100 µM (inactive),11.5 µM (inactive),22.6 µM (inactive),6.11 µM (inactive),4.1 µM (inactive),1.45 µM (inactive),–,–,9.16 µM (inactive),> 100 µM (inactive),> 100 µM (inactive),0.587 µM (active),19.1 µM (inactive),90.8 µM (inactive),23.8 µM (inactive),–
